{
  "source": "patent US20130225598A1",
  "about": "“Stabilized Amorphous Forms of Imatinib Mesylate” (Novartis AG, priority 2007, published 2013)",
  "origin": "cited, not measured here",
  "conditions": "at temperatures below 140 ° C.",
  "data": [
    {"smiles": "CS(=O)(=O)O.Cc1ccc(NC(=O)c2ccc(CN3CCN(C)CC3)cc2)cc1Nc1nccc(-c2cccnc2)n1", "note": "[4-(4-methylpiperazin-1-ylmethyl)-N-[4-methyl-3-(4-(pyridin-3-yl)-pyrimidin-2-ylamino-)phenyl]-benzamide mesylate]", "values": [
      {"measurement": "thermodynamic stability relative to alpha crystal form", "value": "thermodynamically more stable than the alpha form"}
    ]}
  ]
}
